# From US5821251A, “Nitrogen heterocycles” (John Wyeth & Brother Limited, priority 1994, dated 1998)
# How the values were obtained:
# [1] = test system: transient outward potassium current (TOC) in GH3 rat pituitary cell line; test: Procedure 2: blocking transient outward potassium currents (TOC) in the GH3 rat pituitary cell line; assay type: cell-based; settings: GH3 cells; for % Block of TOC, PROCEDURE 2 GH3 %: 100 μM
# Procedure: The compounds were also tested for blocking transient outward potassium currents (TOC) in the GH3 rat pituitary cell line according to the procedure below:
# GH3 cells were obtained from either Flow Laboratories or European Centre for Animal Cell Cultures (Porton Down), and maintained in tissue culture using standard procedures and media for this cell line. Cells were plated on 35 mm plastic dishes and used subsequently for electophysiology with 1 to 10 days.
# Currents were recorded using the whole-cell voltage clamp configuration of the patch clamp technique, using an Axopatch 1C amplifier (Axon Instruments). Patch electrodes were manufactured from aluminosilicate glass tubing (Clark Electomedical SM150F-10) and heat polished prior to use. Resistance was 1-5 M.OMEGA.. No electrode coating was necessary for whole-cell recording. Signal acquisition and analysis was performed using pClamp software (Axon Instruments). A p-on-4 subtraction procedure was used to remove leak and capacitative currents on line. A holding potential of -100 mV was routinely used: this avoided accumulation of slow voltage-dependent inactivation.
# Two main protocols were used in testing drugs. 1) Current-voltage (I-V) curves were collected, with incrementing steps of either 10 or 20 mV. Full I-V curves were obtained both in control and drug solutions. 2) a `pharmacology` program, which involved single voltage steps fromm -100 to +60 mV, applied and collected at 20 s intervals. Compounds under investigation were applied via a `U` tube rapid application system to a small area of the recording chamber. Drug applications were always bracketed by control solutions to ensure reversibility. The recording chamber was continously perfused at 1-5 ml.min^-1. Results are expressed at % of control peak current (step form -100 to +60 mV). However, where drugs have a time dependent effect on TOC, i.e acceleration of TOC decay, results are also expressed as a % of total charge transferred within a defined period of the voltage step from -100 to +60 mV.
# The standard extracellular solution contained (in mM): NaCl 135 (or choline or TRIS chloride); KCl 5; MgCl2 4; EGTA 1; TEACl 10; HEPES 10; glucose 25; pH set to 7.4 with NaOH. TTX was usually at 100-200 nM.
# The intracellular (pipette) solution was comprised of (in mM): K aspartate 120; KCl 20; MgCl2 1; cAMP 1; MgATP 2; EGTA 10; HEPES 10; pH 7.4 with KOH. Other intracellular substrates were often used without noticeable effect. This solution was stored in 1 ml aliquots at -4° C., and filtered at 0.2 μm.
# These recording solutions precluded activation of voltage dependent Na, Ca, delayed rectifier and Ca-activated K currents. The resulting whole-cell currents chiefly comprised the transient outward potassium current, switching on with third power kinetics reaching peak amplitudes of ~1 nA at +60 mV, and a double exponential decay (time constants of ~30 and 160 ms at +60 mV). There is no significant change in current amplitude within the normal recording period, which may extend for up to 90 min. One dish of cells usually lasts several hours.
# The standard compound 4-aminopyridine is a block @ 1-5 mM. (80% block at 5 mM).
# [2] = test system: voltage gated potassium channels (transient outward current, TOC) in dorsal root ganglion (DRG) cells; test: Procedure 1: modulation of voltage-activated K^+ currents in dorsal root ganglion (DRG) cells, block of TOC; assay type: cell-based
# Excerpt: They may therefore by used to treat CNS disorders as described above such as depression, pain psychoses, anxiety, movement disorders (such as Parkinson's disease) and multiple sclerosis and in enhancing cognition, memory and learning.
# Procedure 1 Modulation of voltage-activated K^+ currents in dorsal root ganglion (DRG) cells:
# The method used in the culture or dorsal root ganglion cells is similar to that described by Wood et. al., Capsaicin induced ion fluxes in dorsal root ganglion cells in culture, J. Neuroscience, 8, 3208-3220) (1988). Dorsal root ganglia are dissected mainly from around the lumbar and thoracic vertebrae and placed in a conical centrifuge tube containing Ham's F14 nutrient mixture (F14:Imperial Laboratories) plus horse serum (HS: GIBCO or Flow). When all ganglia have been collected (ex ca. 14 pups) the excess medium is removed and the ganglia incubated for 30 min in "F14+HS" containing 0.1% collagenase Type 1A-S (Sigma). Excess medium is removed, ganglia washed in 4 ml F14 (no HS), resuspended and spun down at 900 g for 10 s. The supernatant is again removed and replaced with 1.8 ml F14 (no HS) plus 0.2 ml trypsin (GIBCO) at a final concentration of 0.25%. The ganglia are then incubated at 37° C. for 30 min agitating every 10 min to prevent clumping. The trypsinisation is inhibited by the addition of 6 ml "F14+HS" and cells are resuspended and centrifuged as before. The medium is removed and 2 ml added of "F14+HS" containing 0.4% DNAase 1 (Sigma). The ganglia are then triturated gently 15-20× using a siliconised pasteur pipette, filtered through a […] nylon mesh filter and collected into a centrifuge tube. The filter is further washed with 2 ml of "F14+HS" which is collected into the same tube. The suspension is spun at 900 g for 3 min, the supernatant removed and the cells resuspended in DRG Growth Medium (DRG-GM) which consists of: HAMS F14 nutrient mixture (40%, v/v), HS(10%, v/v) C6 conditioned medium (50%, v/v), penicillin/streptomycin (100 U/ml; 100 μg/ml) and NGF (30 μg/ml). Cells are then plated out onto five 60 mm poly-L-lysine-coated tissue culture petri dishes (see below).
# After a few days in culture (3-7 days, usually), cells are resuspended from 60 mm dishes using a 0.25% solution of trypsin in F14. An equal volume of DRG-GM is added to inhibit the trypsin, the cells are spun at 900 g for 5 minutes and resuspended in 0.25-0.5 ml of DRG-GM. Neurites are removed by gentle trituration through a 21 g syringe needle (15-20 strokes) and a drop of the cell suspension is then placed on each of 5-6 poly-D-lysine- and laminin-coated 35 mm petri dishes (see below). After 30 minutes incubation at 37° C., each plate is flooded with ca 1.5 ml DRG-GM and after about 1 hour incubation, cells are ready for electrophysiological recording. This final step is carried out specifically in order to remove neurites which hinder good voltage-clamp of the cells.
# 2 ml of poly-D-lysine (Sigma), reconstituted in distilled water to 100 μg/ml, are added to each plate and left for 1-2 hours. Plates are then washed with water and left to dry. Laminin (5 μg/ml) is added as a drop to the centre of plates (previously coated with poly-D-Lys), left for 45 min before removal of excess and use of plates.
# Recordings are made using an AxoClamp-2A (Axon Instruments Inc) switiching clamp amplifier using patch electrodes (4-8 Mohms), made from borosilicate glass capillary tubes (GC150TF-10, Clark Electromedical) and fire-polished. Electrodes are filled with (in mM): 140 K Gluconate, 2 MgCl2, 1.1 EGTA/KOH, 5 HEPES, 20 sucrose, 2 MgATP, 0.2 GTP; pH set to 7.2 with KOH and osmolarity adjusted with sucrose to 310 mOsm. The electrodes are then and dipped in Sigmacote (Sigma) prior to recording to reduce stray capacitance. […]
Structure (SMILES),"% Block of TOC, PROCEDURE 2 GH3 % [1]","% Block of TOC, PROCEDURE 1 DRG % ([2]; 10 μM)",other results
"COc1ccc(C[C@@H]2CC[C@H]3NC[C@H](CO)C[C@@H]3C2)cc1 (racemic) [Example 2, (±)-(3RS,4aSR,6RS,8aRS)-1,2,3,4,4a,5,6,7,8,8a-Decahydro-3-hydroxymethyl-6-((4-methoxyphenyl)methyl)quinoline]",31%,–,–
"COc1ccc(C[C@H]2CC[C@H]3NC[C@H](CO)C[C@H]3C2)cc1 (racemic) [Example 4, (±)-(3RS,4aRS,6SR,8aRS)-1,2,3,4,4a,5,6,7,8,8a-Decahydro-3-hydroxymethyl-6-((4-methoxyphenyl)methyl)quinoline]",56%,–,"% Block of TOC, PROCEDURE 1 DRG % ([2]; 100 μM): 60%"
"COc1ccc(C[C@H]2CC[C@@H]3NC[C@H](CO)C[C@H]3C2)cc1 (relative stereo) [Example 3, (±)-(3RS,4aRS,6SR,8aSR)-1,2,3,4,4,a,5,6,7,8,8a-Decahydro-3-hydroxymethyl-6-((4-methoxyphenyl)methyl)quinoline]",68%,32%,–
"Nc1ccncc1 [4-aminopyridine, reference compound]",–,–,"block of TOC (standard compound) ([2]; at 1 mM): 100%; block (standard compound), in words ([1]; @ 1-5 mM): block; block (standard compound) ([1]; at 5 mM): 80%"
"COc1ccc(CC2CCC3NCC(CO)CC3C2)cc1 (stereo not drawn) [Example 1, 1,2,3,4,4a,5,6,7,8,8a-Decahydro-3-hydroxymethyl-6-((4-methoxyphenyl)methyl)quinoline]",55%,–,–
"COc1ccc(C[C@@H]2CC[C@H]3NC[C@H](CO)C[C@@H]3C2)cc1 [Example 6, (+)-(3R,4aS,6R,8aR)-1,2,3,4,4a,5,6,7,8,8a-Decahydro-3-hydroxymethyl-6-((4-methoxyphenyl)methyl)quinoline]",–,29%,–
"COc1ccc(C[C@H]2CC[C@@H]3[C@@H](CCCN3[C@H](C)c3ccccc3)C2)cc1 [Example 8, (+)-(1'R,4aS,6S,8aR)-1,2,3,4,4a,5,6,7,8,8a-Decahydro-6-((4-methoxyphenyl)methyl)-1-(1'-phenylethyl)quinoline]",–,49%,–
"COc1ccc(C[C@H]2CC[C@H]3NCCC[C@H]3C2)cc1 [Example 9, (-)-(4aS,6S,8aR)-3,4,4a,5,6,7,8,8a-Decahydro-6-((4-methoxyphenyl)methyl)quinoline]",–,28%,–
